Reference: patent US20050107289A1, “Anti-microbial peptides and compositions” (priority 2001, published 2005)
Structures can show the parent of a compound that is named as a salt. Where two headings read alike, the source gives them in different places. Non-standard residues stand in square brackets, D forms with d. Residues, ends and D or L forms follow the SMILES beside them.

Legend:
[1] = tested on: vancomycin-resistant Enterococus faecalis (VRE)(ATCC 51575); type: cell-based, Enterococcus faecalis; set-up: key to VRE (in vitro activity): peptide concentration in μg/ml (broth dilution assay); conditions: Table 9
Procedure: (§1) The antimicrobial activity of the peptides was determined using a broth dilution assay essentially as descried in the guidelines of the National Committee for […] (NCCLS) [National Committee for Clinical Laboratory Standards. Methods for dilution antimicrobial susceptibility tests for bacteria that grow aerobically. Fourth edition. Approved Standard (1997). Document M7-A4. […] The microdilution method has the advantages of requiring less amount of peptide for each assay and the possibility of multiple simultaneous inoculations and was used in most studies. Several of the strains of bacteria tested are further described in Table 3.
(§2) Preparation of peptide solutions. Stock peptide solutions were prepared in 5% DMSO in aq. sucrose (9%). Determination of peptide concentrations was done by quantitative HPLC analysis using known concentrations of internal standards and/or by measuring UV absorption of tryptophane-containing peptide solutions in H2O (λ=280 εTrp: 5690). Serial 2-fold dilutions were made in the above DMSO/aq. sucrose (9%) mixture with concentrations ranging approximately 400-2 μg/ml and aliquots were dispensed in test tubes (100 μl) for the macrodilution test or in microtiter plates (20 μl) for the microdilution assays.
(§3) Inoculum preparation. Overnight cultures of different microorganisms grown in suitable media were diluted 4000 times to an approximate inoculum size of 2.5×10^5 cfu/ml.
(§4) Macrodilution method. Macrodilution methods were performed using procedures similar to those described in the National Committee for Clinical Laboratory Standards. Methods for dilution antimicrobial susceptibility tests for bacteria that grow aerobically. Fourth edition. Approved Standard (1997). Document M7-A4. (NCCLS,Villanova, Pa., 1997). Two ml aliquots of the above inoculum were dispensed to test tubes containing different peptide solutions.
(§5) Microdilution method. Microdilution methods were performed using procedures similar to those described in the National Committee for Clinical Laboratory Standards. Methods for dilution antimicrobial susceptibility tests for bacteria that grow aerobically. Fourth edition. Approved Standard (1997). Document M7-A4.

murine red blood cells = assay: Red blood cell hemolysis; type: cell-based, mouse
Procedure: Selectivity of cyclic peptides for bacterial over mammalian cells was evaluated by measuring red blood cell hemolytic activities as described in Tosteson, M. T. Holmes, S. J., Razin, M. and Tosteson, D. C. Melittin Lysis of Red Cells, J. Membrane Biol. 87, 35-44(1985). Heparinized murine blood was centrifuged at 1000×g for 10 minutes. The supernatant and the buffy coat were removed. Erythrocytes were washed three times with 0.9% saline solution and then resuspended to a concentration of 5% in saline containing 10% FBS (v/v). Red blood cells were then treated with serial dilutions of test peptides in a 96 well plate at 37° C. for 30 minutes. Control samples included a saline solution arid 1% Triton X-100 as 0 and 100% hemolysis, respectively. In some cases, mellitin was used as a further control. Mellitin is a linear peptide that is hemolytic against mammalian red blood cells in vitro at a concentration of about 10 μg/ml. Plates were centrifuged at 1000 g for 10 minutes. Aliquots of the supernatant were diluted 2 times with saline solution and the absorbance was measured at 560 nm.

[2] = tested on: S. aureus (MRSA) ATCC 33591; type: cell-based, Staphylococcus aureus; conditions: Table 9
Procedure: as §1, §2, §3, §4, §5

[3] = media b: cation adjusted Meuller Hinton broth (MHBII)
[4] = media c: Brain Heart Infusion (BHI)
[5] = media a: anti-microbial media-3 (AM-3)

SMILES	VRE (in vitro activity) ([1]; media b: MHBII)	RBC Hemolysis (HD50) (murine red blood cells)	MRSA (in vitro activity) [2, 3]	VRE (in vitro activity) [1, 4]	VRE (in vitro activity) ([1]; media a: AM-3)	MRSA (in vitro activity) [2, 5]
CC(C)C[C@@H]1NC(=O)[C@@H](Cc2c[nH]c3ccccc23)NC(=O)[C@H](Cc2ccccc2)NC(=O)[C@@H](CCCNC(=N)N)NC(=O)[C@H](CCC(N)=O)NC(=O)[C@@H](CCCNC(=N)N)NC(=O)[C@H](Cc2c[nH]c3ccccc23)NC(=O)[C@@H](Cc2c[nH]c3ccccc23)NC1=O [SEQ ID NO:68, [QRFWLWWR]] (cyclo(Q[dR]F[dW]L[dW]W[dR]))	3.8	60	7.5			
CC(C)C[C@@H]1NC(=O)[C@@H](Cc2c[nH]c3ccccc23)NC(=O)[C@H](Cc2c[nH]c3ccccc23)NC(=O)[C@@H](CCCNC(=N)N)NC(=O)[C@H](CCC(N)=O)NC(=O)[C@@H](CCCNC(=N)N)NC(=O)[C@H](Cc2c[nH]c3ccccc23)NC(=O)[C@@H](Cc2c[nH]c3ccccc23)NC1=O [SEQ ID NO:71, [QRWWLWWR]] (cyclo(Q[dR]W[dW]L[dW]W[dR]))	6.3	35	6.3			
CC(C)C[C@@H]1NC(=O)[C@@H](Cc2c[nH]c3ccccc23)NC(=O)[C@H](CCCCN)NC(=O)[C@@H](CO)NC(=O)[C@H](CCC(N)=O)NC(=O)[C@@H](CO)NC(=O)[C@H](CCCCN)NC(=O)[C@@H](Cc2c[nH]c3ccccc23)NC1=O [SEQ ID NO:92, [KSQSKWLW]] (cyclo(K[dS]Q[dS]K[dW]L[dW]))		195	9	18		
CC(C)C[C@H]1NC(=O)[C@H](Cc2c[nH]c3ccccc23)NC(=O)[C@@H](Cc2c[nH]c3ccccc23)NC(=O)[C@H](CCCCN)NC(=O)[C@@H](Cc2c[nH]c3ccccc23)NC(=O)[C@H](CCCCN)NC(=O)[C@@H](CC(C)C)NC(=O)[C@H](Cc2c[nH]c3ccccc23)NC1=O [SEQ ID NO:44, [KWWLWLKW]] (cyclo(K[dW]W[dL]W[dL]K[dW]))		>58			4	4
CC(C)C[C@@H]1NC(=O)[C@@H](Cc2c[nH]c3ccccc23)NC(=O)[C@H](CCC(N)=O)NC(=O)[C@@H](CCCCN)NC(=O)[C@H](CCCCN)NC(=O)[C@@H](Cc2c[nH]c3ccccc23)NC1=O [SEQ ID NO:122, [KKQWLW]] (cyclo(K[dK]Q[dW]L[dW]))		>215			81	27
CC(C)C[C@H]1NC(=O)[C@H](CCCCN)NC(=O)[C@@H](CO)NC(=O)[C@H](CCCCN)NC(=O)[C@@H](CC(C)C)NC(=O)[C@H](Cc2ccc(O)cc2)NC(=O)[C@@H](CC(C)C)NC(=O)[C@H](Cc2ccc(O)cc2)NC1=O [SEQ ID NO:62, [KSKLYLYL]] (cyclo(K[dS]K[dL]Y[dL]Y[dL]))		>200	100	200		
CC(C)C[C@H]1NC(=O)[C@H](C)NC(=O)[C@@H](CC(C)C)NC(=O)[C@H](CCCCN)NC(=O)[C@@H]([C@H](C)O)NC(=O)[C@H](CCCCN)NC(=O)[C@@H](CC(C)C)NC(=O)[C@H](C)NC1=O [SEQ ID NO:64, [KTKLALAL]] (cyclo(K[dT]K[dL]A[dL]A[dL]))		>160	80	>160		
CC(C)C[C@H]1NC(=O)[C@H](Cc2c[nH]c3ccccc23)NC(=O)[C@@H](Cc2ccccc2)NC(=O)[C@H](CCCCN)NC(=O)[C@@H](Cc2c[nH]c3ccccc23)NC(=O)[C@H](Cc2c[nH]cn2)NC(=O)[C@@H](CC(C)C)NC(=O)[C@H](Cc2c[nH]c3ccccc23)NC1=O [SEQ ID NO:99, [KFWLWLHW]] (cyclo(K[dF]W[dL]W[dL]H[dW]))		>25			21	21
CC(C)C[C@H]1NC(=O)[C@H](Cc2c[nH]c3ccccc23)NC(=O)[C@@H](CCCNC(=N)N)NC(=O)[C@H](CCC(N)=O)NC(=O)[C@@H](CCCCN)NC(=O)[C@H](Cc2c[nH]c3ccccc23)NC(=O)[C@@H](CC(C)C)NC(=O)[C@H](Cc2c[nH]c3ccccc23)NC1=O [[KQRWLWLW-HCl] (8), cyclo-(D-Lys-Gln-D-Arg-Trp-D-Leu-Trp-D-Leu-Trp)] (cyclo([dK]Q[dR]W[dL]W[dL]W))		70	8	8		
CC(C)C[C@H]1NC(=O)[C@H](Cc2c[nH]c3ccccc23)NC(=O)[C@@H](Cc2ccccc2)NC(=O)[C@H](CCCCN)NC(=O)[C@@H](Cc2ccccc2)NC(=O)[C@H](CCCCN)NC(=O)[C@@H](CC(C)C)NC(=O)[C@H](Cc2c[nH]c3ccccc23)NC1=O [SEQ ID NO:100, [KFWLWLKF]] (cyclo(K[dF]W[dL]W[dL]K[dF]))		>78			10	11
CC[C@H](C)[C@@H]1NC(=O)[C@@H](CO)NC(=O)[C@H](CCCCN)NC(=O)[C@@H]([C@H](C)O)NC(=O)[C@H]([C@@H](C)CC)NC(=O)[C@@H](CCCNC(=N)N)NC1=O [SEQ ID NO:132, [KSIRIT]] (cyclo(K[dS]I[dR]I[dT]))		175	>200	>200		
CC(C)C[C@H]1NC(=O)[C@H](Cc2ccc(O)cc2)NC(=O)[C@@H](CCCCN)NC(=O)[C@H](CO)NC(=O)[C@@H](CO)NC(=O)[C@H](CCCCN)NC(=O)[C@@H](CC(C)C)NC(=O)[C@H](Cc2ccc(O)cc2)NC1=O [SEQ ID NO:83, [KSSKYLYL]] (cyclo(K[dS]S[dK]Y[dL]Y[dL]))		>340	85	170		
CC(C)C[C@H]1NC(=O)[C@H](C)NC(=O)[C@@H](CCCCN)NC(=O)[C@H](CO)NC(=O)[C@@H](CO)NC(=O)[C@H](CCCCN)NC(=O)[C@@H](CC(C)C)NC(=O)[C@H](C)NC1=O [SEQ ID NO:78, [KSSKALAL]] (cyclo(K[dS]S[dK]A[dL]A[dL]))		>240	>240	>240		
CC(C)C[C@@H]1NC(=O)[C@@H](Cc2ccccc2)NC(=O)[C@H](CCCCN)NC(=O)[C@@H](CCCCN)NC(=O)[C@H](CCCCN)NC(=O)[C@@H](Cc2ccccc2)NC(=O)[C@H](CC(C)C)NC(=O)[C@@H](Cc2ccccc2)NC1=O [SEQ ID NO:51, [KKKFLFLF]] (cyclo(K[dK]K[dF]L[dF]L[dF]))		>300	18	75		
CC(C)C[C@@H]1NC(=O)[C@@H](Cc2c[nH]c3ccccc23)NC(=O)[C@H](CCC(N)=O)NC(=O)[C@@H](Cc2c[nH]cn2)NC(=O)[C@H](CCCCN)NC(=O)[C@@H](Cc2c[nH]c3ccccc23)NC1=O [SEQ ID NO:120, [KHQWLW]] (cyclo(K[dH]Q[dW]L[dW]))		115.0			57	43
CC(C)C[C@H]1NC(=O)[C@H](Cc2c[nH]c3ccccc23)NC(=O)[C@@H](Cc2ccccc2)NC(=O)[C@H](CCCCN)NC(=O)[C@@H](Cc2ccccc2)NC(=O)[C@H](Cc2c[nH]c3ccccc23)NC(=O)[C@@H](CC(C)C)NC(=O)[C@H](Cc2c[nH]c3ccccc23)NC1=O [SEQ ID NO:40, [KFWLWLWF]] (cyclo(K[dF]W[dL]W[dL]W[dF]))		>44			>44	33
CC(C)C[C@H]1NC(=O)[C@H](CCCCN)NC(=O)[C@@H](CO)NC(=O)[C@H](CCCCN)NC(=O)[C@@H](CC(C)C)NC(=O)[C@H](Cc2c[nH]cn2)NC(=O)[C@@H](CC(C)C)NC(=O)[C@H](Cc2c[nH]cn2)NC1=O [SEQ ID NO:103, [KSKLHLHL]] (cyclo(K[dS]K[dL]H[dL]H[dL]))		>320	>320	>320		
